This test addresses T1, GMDS (GDP-mannose 4,6-dehydratase) (Homo sapiens, UniProt O60547).
T1 construct: recombinant human GMDS with a His-tag (Addgene plasmid # 39152)
T1 sequence (O60547 2-372): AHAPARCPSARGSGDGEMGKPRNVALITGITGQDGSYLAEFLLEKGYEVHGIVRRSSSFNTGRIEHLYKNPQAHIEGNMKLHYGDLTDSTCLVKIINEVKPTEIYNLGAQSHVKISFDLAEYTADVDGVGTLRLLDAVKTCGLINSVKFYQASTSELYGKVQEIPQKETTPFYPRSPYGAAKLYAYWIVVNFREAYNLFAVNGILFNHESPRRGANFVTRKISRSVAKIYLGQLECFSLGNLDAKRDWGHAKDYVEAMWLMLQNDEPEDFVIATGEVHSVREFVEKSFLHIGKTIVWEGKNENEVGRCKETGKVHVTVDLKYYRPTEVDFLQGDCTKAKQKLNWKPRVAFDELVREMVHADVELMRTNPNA
The test can be described thus: LC-MS and 1H NMR assay of GDP-mannose conversion by recombinant GMDS ([…] enzyme, […] GDP-mannose). Type of test: biochemical.

pIC50: −log10 of the molar value.

Broadly, the pIC50 is −log10 of the IC50, conventionally taken in molar units. `Nc1nc2c(ncn2[C@@H]2O[C@H](COP(=O)(O)OP(=O)(O)O[C@H]3O[C@H](C(F)F)[C@@H](O)[C@H](O)[C@@H]3O)[C@@H](O)[C@H]2O)c(=O)[nH]1` [compound 25, GDP-D-Rha6F2]: the negative-log IC50 (pIC50) is 3.64.

Source of the values: paper PMC8640046, “Fluorinated rhamnosides inhibit cellular fucosylation” (Nature Communications, 2021).
